Earlier results in US20070237820A1, “Pharmaceutical formulations containing a non-steroidal antinflammatory drug and an antiulcerative drug” (Andrx Pharmaceuticals, LLC, priority 2004, published 2007).

How the values were obtained:
[1] = NSAIDs such as diclofenac
[2] = patients on chronic use

Structure (SMILES) | patients with side effects that require cessation of medication [1] | patients experiencing gross bleeding and ulceration [2]
O=C(O)Cc1ccccc1Nc1c(Cl)cccc1Cl [diclofenac] | about 20% | 
CN1C(C(=O)Nc2ccccn2)=C(O)c2ccccc2S1(=O)=O [piroxicam] |  | up to 4%
